Test systems include A498; HCC 2998; HCT-15; K562; KM12; LOX IMVI; M14; MOLT-4; Malme-3M; NCI-H460; OVCAR-4; SF-268; SK-MEL-2; SK-MEL-5; SN12C; SW-620; U-251; CAKI-1.
Holding throughout (test): NCI-60 cell line screen, 48 h

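The compound was tested at five concentrations on cells cultured in 96-well plates, with a 48-hour exposure period. At the GI50, growth is halved.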 Active and inactive are the calls of the source. Rule as the data show it: active = GI50 up to about 1.1 µM and inactive = higher. A value given as a limit tells only on which side of the number the result lay.

On to `CCOC(=O)c1oc2c(OC)ccc3c2c1CCC3`, for which the GI50 in the test with A498 was > 100 µM (inactive); with HCC 2998 it was > 100 µM (inactive); with HCT-15, more than 100 µM; with K562, 66.8 µM (inactive); in the test with KM12 it was > 100 µM (inactive); in the test with LOX IMVI, > 100 µM (inactive). Moreover, the GI50 with M14 was > 100 µM (inactive); in the test on MOLT-4 it was 37.1 µM (inactive); in the test on Malme-3M, > 100 µM (inactive); with NCI-H460, > 100 µM (inactive); with OVCAR-4, > 100 µM (inactive); with SF-268, > 100 µM (inactive). The GI50 in the test on SK-MEL-2, in the test on SK-MEL-5, with SN12C, in the test with SW-620 and in the test on U-251 was > 100 µM (inactive) each time.

Turning to `COC(=O)/C(=C/c1ccc(OC)cc1)C(C(=O)O)=C(C)C`, the GI50 in the test with A498 was > 100 µM (inactive); in the test with CAKI-1, > 100 µM (inactive); in the test on HCC 2998, > 100 µM (inactive); in the test with HCT-15, more than 100 µM; in the test with K562 it was > 100 µM (inactive); with KM12, > 100 µM (inactive). The GI50 in the test on LOX IMVI, in the test with M14, in the test with MOLT-4, in the test on Malme-3M, in the test on NCI-H460 and in the test on SF-268 was > 100 µM (inactive) in each case. Also, the GI50 with SK-MEL-2, with SK-MEL-5, in the test with SN12C, with SW-620 and in the test on U-251 was > 100 µM (inactive) throughout.

Turning to `N#C/C(=C\c1ccc(O)c(O)c1)C(=O)NC1CCC(CC2CCC(NC(=O)/C(C#N)=C/c3ccc(O)c(O)c3)CC2)CC1` (stereo not given), the GI50 was 4.7 µM (inactive) in the test on A498; 2.04 µM (inactive) in the test with CAKI-1; 2.24 µM (inactive) with HCC 2998; 0.461 µM in the test on HCT-15; 0.564 µM (active) in the test with K562; 1.47 µM (inactive) with KM12. The GI50 was 0.356 µM (active) in the test on LOX IMVI; 1.85 µM (inactive) in the test on M14; 0.743 µM (active) in the test on MOLT-4; 3.65 µM (inactive) with Malme-3M; 0.283 µM (active) with NCI-H460; 3.32 µM (inactive) with OVCAR-4. Besides, the GI50 in the test with SF-268 was 1.93 µM (inactive); with SK-MEL-2 it was 2 µM (inactive); with SK-MEL-5, 1.93 µM (inactive); in the test with SN12C, 2.33 µM (inactive); with SW-620, 0.465 µM (active); with U-251, 0.973 µM (active).

For the compound `CCOC(=O)c1cccnc1C(OC(C)=O)OC(C)=O`, the GI50 with A498 was > 100 µM (inactive); in the test with CAKI-1, > 100 µM (inactive); with HCC 2998 it was > 100 µM (inactive); with HCT-15, more than 100 µM; in the test with K562 it was > 100 µM (inactive); in the test with KM12 it was > 100 µM (inactive). Besides, the GI50 is 70 µM (inactive) in the test with LOX IMVI; > 100 µM (inactive) in the test on M14; > 100 µM (inactive) in the test with MOLT-4; > 100 µM (inactive) in the test on Malme-3M; > 100 µM (inactive) in the test on NCI-H460; > 100 µM (inactive) with OVCAR-4. The GI50 in the test with SF-268, with SK-MEL-2, with SK-MEL-5, with SN12C, in the test with SW-620 and in the test with U-251 was > 100 µM (inactive) each time.

As for `O=C1CCC(=O)C(C(=O)CCC(=O)Nc2cccc(Cl)c2)C1` (stereo not given), the GI50 was > 100 µM (inactive) with A498; > 100 µM (inactive) with CAKI-1; > 100 µM (inactive) with HCC 2998; more than 100 µM in the test on HCT-15; > 100 µM (inactive) in the test on K562; > 100 µM (inactive) with KM12. Moreover, the GI50 in the test on LOX IMVI, in the test on M14, in the test on MOLT-4, in the test on Malme-3M, in the test with NCI-H460 and with SK-MEL-5 was > 100 µM (inactive) in each case. Moreover, the GI50 in the test with SN12C, in the test with SW-620 and in the test on U-251 was > 100 µM (inactive) each time.

As to `COC1CC(OS(=O)(=O)c2ccc([N+](=O)[O-])cc2)C(OC(=O)c2ccccc2)C(C)O1` (stereo not given), the GI50 in the test on A498 is 88.7 µM (inactive); with CAKI-1, > 100 µM (inactive); with HCC 2998, > 100 µM (inactive); in the test with HCT-15 it was more than 100 µM; in the test on K562 it was > 100 µM (inactive); in the test on KM12 it was > 100 µM (inactive). Moreover, the GI50 was > 100 µM (inactive) in the test with LOX IMVI; > 100 µM (inactive) with M14; > 100 µM (inactive) in the test on MOLT-4; > 100 µM (inactive) with Malme-3M; > 100 µM (inactive) in the test on NCI-H460; 49.9 µM (inactive) in the test with OVCAR-4. Besides, the GI50 with SF-268 is 82.2 µM (inactive); with SK-MEL-5, > 100 µM (inactive); with SN12C it was > 100 µM (inactive); in the test on SW-620, > 100 µM (inactive); with U-251 it was > 100 µM (inactive).

Take `NCCn1ccc(NC(c2ccccc2)(c2ccccc2)c2ccccc2)nc1=O`: the GI50 in the test with A498 was 65.5 µM (inactive); in the test on HCC 2998 it was 18 µM (inactive); in the test on HCT-15, more than 100 µM; in the test with K562, 20.1 µM (inactive); in the test on KM12 it was 21.7 µM (inactive); in the test on LOX IMVI it was 16.4 µM (inactive). In addition, the GI50 in the test with MOLT-4 was 19 µM (inactive); with Malme-3M, 18.6 µM (inactive); in the test on NCI-H460, 20.3 µM (inactive); with OVCAR-4, 36.3 µM (inactive); in the test with SF-268, 16.3 µM (inactive); in the test with SK-MEL-2, 18.7 µM (inactive). For the same compound, the GI50 in the test with SN12C was 20.3 µM (inactive); in the test on SW-620 it was 19.1 µM (inactive); with U-251 it was 20.7 µM (inactive).

As to `COc1ccc(C2NC3=C(CCCC3)N2)cc1`, the GI50 in the test with A498 was 79.4 µM (inactive); with HCC 2998, > 100 µM (inactive); in the test with HCT-15, 44.8 µM; with KM12 it was 54.3 µM (inactive); in the test with LOX IMVI, 56.4 µM (inactive); in the test on M14 it was 37.4 µM (inactive). Besides, the GI50 in the test with MOLT-4 is 59.3 µM (inactive); in the test on Malme-3M, 40.4 µM (inactive); with NCI-H460, 45 µM (inactive); in the test on OVCAR-4, > 100 µM (inactive); in the test on SF-268, > 100 µM (inactive); in the test on SK-MEL-2 it was 43.8 µM (inactive). Also, the GI50 with SK-MEL-5 is 27.2 µM (inactive); in the test on SN12C it was > 100 µM (inactive); with U-251 it was 53.8 µM (inactive).

Take `CCOC(=O)C1S/C(=N\c2ccccc2)N=C1C` (stereo not given): the GI50 is > 100 µM (inactive) in the test with A498; > 100 µM (inactive) in the test with HCC 2998; 55.5 µM in the test with HCT-15; 40.7 µM (inactive) in the test on K562; > 100 µM (inactive) with KM12; 47.3 µM (inactive) in the test on LOX IMVI. The GI50 is 38.2 µM (inactive) in the test on MOLT-4; > 100 µM (inactive) in the test with Malme-3M; 79.1 µM (inactive) in the test on NCI-H460; 68.7 µM (inactive) in the test on OVCAR-4; 60.1 µM (inactive) in the test with SF-268; > 100 µM (inactive) in the test on SK-MEL-2. Further, the GI50 with SN12C, in the test with SW-620 and in the test with U-251 was > 100 µM (inactive) in each case.

Regarding `Cc1cc(NS(=O)(=O)c2ccc(Nc3c4ccccc4nc4c(C(=O)N5CCN(CCOS(C)(=O)=O)CC5)cccc34)cc2)no1`, the GI50 in the test with A498 was > 100 µM (inactive); in the test with CAKI-1, > 100 µM (inactive); in the test on HCC 2998, > 100 µM (inactive); with HCT-15, more than 100 µM; with K562, 37.5 µM (inactive); in the test with KM12, > 100 µM (inactive). The GI50 with M14 was > 100 µM (inactive); with MOLT-4 it was 54.1 µM (inactive); in the test with Malme-3M, > 100 µM (inactive); in the test with NCI-H460, > 100 µM (inactive); in the test on OVCAR-4, > 100 µM (inactive); in the test on SF-268 it was > 100 µM (inactive). Also, the GI50 in the test with SK-MEL-2, in the test with SK-MEL-5, with SN12C and in the test on U-251 was > 100 µM (inactive) each time.

As for `COC(=O)/C(=N/Nc1cccc(Cl)c1)C(C(=O)C(=O)Nc1cccc(Cl)c1C)c1nc2ccccc2nc1C` (stereo not given), the GI50 in the test with A498 is > 100 µM (inactive); in the test with CAKI-1 it was 52.6 µM (inactive); in the test with HCC 2998 it was 43.8 µM (inactive); in the test with K562 it was 32.2 µM (inactive); with KM12 it was 80.7 µM (inactive); with M14, 53.5 µM (inactive). Further, the GI50 is > 100 µM (inactive) with MOLT-4; 55 µM (inactive) in the test with Malme-3M; 48.8 µM (inactive) with NCI-H460; 68.5 µM (inactive) in the test with OVCAR-4; > 100 µM (inactive) with SF-268; 38.5 µM (inactive) in the test on SK-MEL-2. The GI50 in the test with SK-MEL-5 is 36 µM (inactive); in the test on SN12C, 60.7 µM (inactive); in the test on SW-620, > 100 µM (inactive).

Turning to `O=C(CCc1cc(-c2ccccc2)nc(S)n1)N(Cc1ccccc1)Cc1ccccc1`, the GI50 with A498 is > 100 µM (inactive); with CAKI-1, > 100 µM (inactive); in the test with HCC 2998, > 100 µM (inactive); in the test with HCT-15, more than 100 µM; in the test on K562, > 100 µM (inactive); in the test with KM12 it was > 100 µM (inactive). Also, the GI50 with LOX IMVI, in the test on M14, with MOLT-4, with Malme-3M, with NCI-H460 and in the test on OVCAR-4 was > 100 µM (inactive) throughout. Also, the GI50 in the test with SF-268, in the test with SK-MEL-2, with SN12C, in the test with SW-620 and in the test on U-251 was > 100 µM (inactive) in each case.
